Results taken from patent US5028730A, “Antihypercholesterolemic nitrile compounds” (Bristol-Myers Company, priority 1990, dated 1991).

Target: T1, microsomal form of rat liver HMG-CoA reductase (Rattus norvegicus, UniProt P51639)
T1 construct: from tissue; host or cells: rat liver microsomes
T1 sequence (P51639 1-887): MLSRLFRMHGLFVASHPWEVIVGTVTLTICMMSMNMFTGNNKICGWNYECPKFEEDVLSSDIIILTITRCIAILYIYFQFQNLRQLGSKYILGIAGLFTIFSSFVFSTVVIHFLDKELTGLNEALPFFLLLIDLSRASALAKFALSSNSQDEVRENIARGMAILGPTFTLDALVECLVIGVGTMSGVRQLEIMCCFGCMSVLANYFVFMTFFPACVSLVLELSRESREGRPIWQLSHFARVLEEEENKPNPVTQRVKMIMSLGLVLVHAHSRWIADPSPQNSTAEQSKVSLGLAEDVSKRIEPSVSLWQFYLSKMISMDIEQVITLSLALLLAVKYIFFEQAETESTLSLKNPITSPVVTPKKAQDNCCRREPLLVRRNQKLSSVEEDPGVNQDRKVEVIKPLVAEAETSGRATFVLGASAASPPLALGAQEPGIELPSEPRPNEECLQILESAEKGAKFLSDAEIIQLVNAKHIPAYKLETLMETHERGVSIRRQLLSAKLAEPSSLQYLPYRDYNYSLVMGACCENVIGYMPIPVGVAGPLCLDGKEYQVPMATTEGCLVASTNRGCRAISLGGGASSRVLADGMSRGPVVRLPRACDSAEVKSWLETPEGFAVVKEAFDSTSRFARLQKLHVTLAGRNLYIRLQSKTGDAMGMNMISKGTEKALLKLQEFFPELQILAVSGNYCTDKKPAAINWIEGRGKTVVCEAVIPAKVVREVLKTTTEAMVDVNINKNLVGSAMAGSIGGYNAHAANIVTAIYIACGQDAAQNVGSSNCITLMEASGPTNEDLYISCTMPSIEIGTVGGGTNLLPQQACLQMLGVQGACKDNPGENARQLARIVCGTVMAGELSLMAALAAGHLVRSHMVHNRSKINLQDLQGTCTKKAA
Assay: In Vitro Inhibition of Microsomal HMG-CoA Reductase
Format: biochemical
Conditions: 50 percent inhibitory concentration, rat liver microsomes, [3-14C]-HMG-CoA 0.33 mM, NADPH 3.0 mM, pH 7.2, at least 4 dilutions in duplicate
Description: The intact, fully activated microsomal form of rat liver HMG-CoA reductase (subunit MW ca 100,000 daltons) was prepared as described by Parker, et al., Biochem. Biophys. Res. Commun., 125, 629-635 (1984), and used as the source of enzyme for assays. HMG-CoA reductase activity was determined essentially by the method of Shapiro, et al., Biochem. Biophys. Acta., 370, 369-377 (1974), with modifications as described by Ingebritsen and Gibson, Meth. Enzymol, 71, 486-497 (1981) with the exception that the internal standard ^3 H-mevalonolactone is added after termination of the assay. […]
To measure reductase inhibition, test compounds dissolved in water or dimethylsulfoxide and diluted in buffer A (50 mM imidazole-HCl, 250 mM NaCl, 1 mM EDTA, 1 mM EGTA, 5 mM DTT, 20 μM leupeptin, pH=7.2) were incubated with aliquots of microsomes (80-160 μg protein in buffer A) followed by addition of d,1-[3-^14 C]-HMG-CoA (0.33 mM, 2.0 dpm/picomole) and NADPH (3.0 mM). The 50 percent inhibitory concentration (IC50) for each compound in Table 1 was calculated from the linear regression line of the percent decrease (from control) in enzyme activity vs. log concentration of inhibitor, determined using at least 4 dilutions of each test compound assayed in duplicate.

Structure (SMILES) | IC50 [µM]
N#CC(/C=C/[C@@H](O)C[C@@H](O)CC(=O)O)=C(c1ccc(F)cc1)c1ccc(F)cc1 (relative stereo) [Example 7, Sodium (±)-(E)-erythro-8-cyano-9,9-bis(4-fluorophenyl)-3,5-dihydroxy-6,8-nonadienoate] | 8
N#CC(/C=C/[C@H]1C[C@H](O)CC(=O)O1)=C(c1ccc(F)cc1)c1ccc(F)cc1 (relative stereo) [Example 8, Trans-(E)-2-[bis(4-fluorophenyl)methylene]-4-(tetrahydro-4-hydroxy-6-oxo-2H-pyran-2-yl)-3-butenenitrile] | 26
